Entries after “also recorded” stand apart in the source; their conditions may differ. Like-named read-outs stand apart in the source and are kept apart here.
What was measured:
mevalonate kinase = molecular target: T1, mevalonate kinase (Streptococcus pneumoniae, UniProt A0A0H2UNK6); test: Initial substrate results of analogues with mevalonate kinase (FIG. 8); format: biochemical; settings: [ATP]=0.85 mM
T1 sequence (A0A0H2UNK6 1-292): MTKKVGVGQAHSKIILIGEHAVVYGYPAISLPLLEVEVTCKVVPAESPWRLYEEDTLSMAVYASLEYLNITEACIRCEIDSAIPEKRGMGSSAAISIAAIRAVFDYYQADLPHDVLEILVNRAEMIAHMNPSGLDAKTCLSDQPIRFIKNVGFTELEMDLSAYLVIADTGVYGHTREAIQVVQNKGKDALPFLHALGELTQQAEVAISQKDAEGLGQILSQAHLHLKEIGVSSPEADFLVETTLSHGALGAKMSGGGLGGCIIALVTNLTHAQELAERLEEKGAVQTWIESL
Procedure: FIG. 8. Initial substrate results [analogue] ranged from 2.0-2.5 mM, except #6 (4.2 mM) and #8 (6.2 mM).
A series of compounds related to compounds 4, 5, 23, and 25 can be synthesized as potential competitive or noncompetitive reversible inhibitors of MK and DPM-DC (See, e.g., FIGS. 6-7). The representative synthesis shown (Scheme 4a) is a modification of that shown in Scheme 4, and R is limited only by availability of the corresponding reagent and synthetic technique, as would be understood by those skilled in the art made aware of this invention (e.g., alkyl, vinyl, acetylenyl, aryl, heteroaryl, etc., via Grignard reaction with the corresponding magnesium bromide or chloride).

DPM-DC [1] = molecular target: DPM-DC (Streptococcus pneumoniae, UniProt Q9FD53); test: Inhibition of S. pneumoniae DPM-DC; format: biochemical; settings: DPM-DC from S. pneumoniae
Sequence of DPM-DC (Streptococcus pneumoniae, UniProt Q9FD53) (Q9FD53 entry or part of it): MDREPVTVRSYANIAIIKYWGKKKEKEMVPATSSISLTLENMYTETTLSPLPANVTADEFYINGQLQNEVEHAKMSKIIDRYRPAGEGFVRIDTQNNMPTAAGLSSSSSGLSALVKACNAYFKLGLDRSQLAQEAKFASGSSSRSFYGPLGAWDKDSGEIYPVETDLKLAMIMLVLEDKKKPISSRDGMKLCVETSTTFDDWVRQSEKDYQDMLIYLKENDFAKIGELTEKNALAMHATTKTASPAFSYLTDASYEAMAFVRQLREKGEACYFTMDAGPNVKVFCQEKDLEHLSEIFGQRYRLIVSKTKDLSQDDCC

rat liver DPM-DC = molecular target: T2, rat liver DPM-DC (Rattus norvegicus, UniProt Q62967); settings: cited from earlier work
T2 construct: host or cells: rat liver
T2 sequence (Q62967 1-401): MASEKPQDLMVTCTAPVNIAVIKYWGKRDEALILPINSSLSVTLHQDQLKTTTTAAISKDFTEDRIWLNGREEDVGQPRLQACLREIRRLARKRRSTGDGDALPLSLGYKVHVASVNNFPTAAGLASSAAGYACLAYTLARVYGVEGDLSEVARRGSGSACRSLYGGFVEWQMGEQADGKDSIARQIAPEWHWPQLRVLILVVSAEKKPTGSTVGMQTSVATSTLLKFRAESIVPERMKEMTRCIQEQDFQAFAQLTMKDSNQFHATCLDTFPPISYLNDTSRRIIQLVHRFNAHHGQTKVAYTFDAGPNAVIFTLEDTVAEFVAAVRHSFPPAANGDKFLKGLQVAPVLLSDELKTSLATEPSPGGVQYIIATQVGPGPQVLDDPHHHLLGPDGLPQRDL

mevalonate kinase (MK) [2] = molecular target: T3, mevalonate kinase (MK) (Streptococcus pneumoniae, UniProt A0A0H2UNK6); test: Initial-rate inhibition of S. pneumoniae mevalonate kinase; format: biochemical
Procedure: Regulation of the isoprenoid biosynthetic pathway in S. pneumoniae was discovered during an attempt to enzymatically synthesize DPM from ATP and mevalonate using MK and PMK. Individually, either enzyme is capable of quantitative conversion of substrate to product. However, when the enzymes are added simultaneously, the forward reaction decelerates rapidly and little product is formed. […] Thus, this nearly pure noncompetitive inhibitor binds at a site that is physically distinct from the substrate binding sites—an allosteric site. […] The stoichiometry was confirmed by NMR titration. […] Down-regulation of this pathway is quite specific for DPM.
(§1) The findings that mevalonate-pathway S. pneumoniae mutants cannot survive in mouse lung or serum validated this pathway as an antibiotic target in animal models. Acting on the hypothesis that the primary sequence differences of the mammalian and streptococcal MKs might produce different DPM-inhibition characteristics, the human enzyme was cloned, expressed, purified and tested for DPM inhibition. The effect of DPM on the initial rate of the human and streptococcal enzymes was assessed using samples with matched catalytic poise ([substrates]˜Km, equivalent Vm).
(§2) Several compounds were designed to inhibit DPM-DC and control cholesterol biosynthesis. In one such compound, each of the C6-methyl protons of mevalonate are replaced with fluorine (6,6,6-trifluoromevalonate, F3-mev). Given DPM inhibition of MK, and excellent inhibition of rat liver DPM-DC by F3-DPM (Ki=0.5 μM) it was hoped that F3-DPM might inhibit both MK and DPM-DC from S. pneumoniae, and, if so, be used as a bacteriostatic or bacteriocidal agent. […] Encouraged, F3-DPM was tested as an antibiotic against S. pneumoniae. To avoid the possible obstacles of phosphatase degradation of DPM and transporting a highly charged anion across the cell wall, a prodrug strategy that relies on conversion of F3-mev to F3-DPM in the cytosol was used. F3-mev conversion to F3-DPM and consequent inhibition of DPM-DC occurs in rat liver extracts. The linear and lactone forms of statins, which target an early step in the isoprenoid pathway, show widely different potencies; consequently, both forms of F3-mev were tested as inhibitors. Serial dilutions of F3-mev were added to Meuller-Hinton Broth, a horse-blood based medium, containing ˜7.5×10^7 cells of either an infectious (ATCC 49619) or non-infectious (R6) strain of S. pneumoniae. The cultures containing F3-mev were incubated for 24 hours at 35° C. and plated to assess viability. The linear form of F3-mev had little effect; confluent growth was observed on all plates; in contrast, the lactone is clearly a bacteriocide—less than 0.0001% of either strain survived at 100-200 μg/ml of the lactone. […]

[3] = system: S. pneumoniae (ATCC 49619, R6); test: Antibiotic test: broth culture, plated to assess viability; format: cell-based, Streptococcus pneumoniae; settings: serial dilutions; 24 hours at 35° C.; ATCC 49619 or R6
Procedure: as §2, with “viability.” for “viability. The linear form of F3-mev had little effect; confluent growth was observed on all plates; in contrast, the lactone is clearly a bacteriocide—less than 0.0001% of either strain survived at 100-200 μg/ml of the lactone.”

human mevalonate kinase [4] = molecular target: T4, human mevalonate kinase (Homo sapiens, UniProt Q03426); test: DPM inhibition of human mevalonate kinase (initial rate); format: biochemical; settings: at DPM concentrations that essentially completely inhibit the streptococcal system; [substrates]~Km
T4 construct: made in house
T4 sequence (Q03426 whole entry): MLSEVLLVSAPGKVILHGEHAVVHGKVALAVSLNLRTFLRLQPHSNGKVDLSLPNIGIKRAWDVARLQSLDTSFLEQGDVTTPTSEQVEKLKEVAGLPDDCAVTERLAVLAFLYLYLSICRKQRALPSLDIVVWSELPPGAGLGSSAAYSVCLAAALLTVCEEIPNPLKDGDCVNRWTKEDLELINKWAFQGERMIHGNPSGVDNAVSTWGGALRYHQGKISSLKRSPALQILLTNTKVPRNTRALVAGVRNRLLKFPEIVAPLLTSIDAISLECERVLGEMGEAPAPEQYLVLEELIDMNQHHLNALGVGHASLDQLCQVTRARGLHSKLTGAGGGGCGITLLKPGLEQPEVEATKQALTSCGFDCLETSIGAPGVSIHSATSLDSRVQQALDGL
Procedure: as §1

mevalonate kinase (MK) [5] = molecular target: T3, mevalonate kinase (MK); test: Equilibrium binding of DPM to MK
mevalonate kinase (MK) [6] = molecular target: T3, mevalonate kinase (MK); settings: read-out: Ki (binding to the allosteric site of mevalonate kinase); S. pneumoniae MK; background, Andreassi et al. 2004; cited from earlier work
[7] = molecular target: T5, mammalian DPM decarboxylase (Homo sapiens, UniProt P53602); settings: cited from earlier work; for Km: substrate of mammalian DPM decarboxylase
T5 sequence (P53602 1-400): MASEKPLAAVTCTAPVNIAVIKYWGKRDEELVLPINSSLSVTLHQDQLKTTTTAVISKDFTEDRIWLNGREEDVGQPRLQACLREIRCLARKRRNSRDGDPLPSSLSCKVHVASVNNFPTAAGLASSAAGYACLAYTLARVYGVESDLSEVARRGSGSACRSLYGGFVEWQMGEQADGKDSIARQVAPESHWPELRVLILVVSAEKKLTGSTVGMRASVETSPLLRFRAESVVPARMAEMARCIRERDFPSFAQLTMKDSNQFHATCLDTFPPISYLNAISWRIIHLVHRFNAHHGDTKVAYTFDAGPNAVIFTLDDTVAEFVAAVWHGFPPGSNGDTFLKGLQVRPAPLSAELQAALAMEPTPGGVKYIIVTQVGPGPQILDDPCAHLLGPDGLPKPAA

DPM-DC [8] = molecular target: T6, DPM-DC (Streptococcus pneumoniae, UniProt A0A0H2UNP0); test: DPM binding to DPM-DC by intrinsic fluorescence
T6 sequence (A0A0H2UNP0 1-317): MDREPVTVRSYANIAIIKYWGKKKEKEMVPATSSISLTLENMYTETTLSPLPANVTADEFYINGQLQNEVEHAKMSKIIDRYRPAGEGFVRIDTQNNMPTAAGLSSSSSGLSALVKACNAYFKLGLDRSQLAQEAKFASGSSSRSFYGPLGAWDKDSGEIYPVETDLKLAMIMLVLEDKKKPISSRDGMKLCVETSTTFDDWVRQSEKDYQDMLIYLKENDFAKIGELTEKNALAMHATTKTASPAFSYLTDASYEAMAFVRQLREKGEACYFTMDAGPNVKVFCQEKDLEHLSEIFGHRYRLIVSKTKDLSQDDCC
Procedure: FIG. 5. DPM Binding to DPM-DC. Conditions: DPM-DC (0.10 μM); MgCl2 (1.0 mM); β-Me (2.0 mM); KCl (50 mM); Glycerol (0.5% v/v); Hepes (50 mM, pH 8.0); T=25 (±2)° C.
This spectroscopic handle can be used to determine the affinities of the inhibitors described in this proposal and to explore the mechanism of DPM-DC. […] As a tool to study mechanism, the DPM-induced fluorescence changes can monitor, by stopped-flow, the progress of the binding reactions. The concentration dependencies of such measurements yield microscopic rate constants, which, in turn, provide ground and transition-state energetics for a particular step in the reaction coordinate. In favorable cases, fluorescence changes occur subsequent to binding as consequence of other structural changes that occur during the catalytic cycle—such is the case with DPM-DC. These changes can be assigned to bond-cleavage steps using by monitoring chemistry in the presteady-state by quenched-flow.

human mevalonate kinase [9] = molecular target: T4, human mevalonate kinase; settings: background; cited from earlier work
[10] = system: incorporation of mevalonate into nonsaponifiable lipids; settings: rat liver extracts; relative to F3-mev; cited from earlier work
MK = settings: producing 6-fluoroDPM; cited from earlier work
PMK = settings: producing 6-fluoroDPM; cited from earlier work
DPM-DC [11] = molecular target: T6, DPM-DC; settings: cited from earlier work

CC(O)(CCO)CC(=O)O (stereo not drawn) [mevalonate]
kcat (mevalonate kinase): 227 s^1

O=C(O)CC(O)(CCOP(=O)(O)OP(=O)(O)O)C(F)(F)F (stereo not drawn) [F3-DPM]
Ki (DPM-DC [1]): 50 nM
Ki (rat liver DPM-DC; rat liver): 500 nM
Ki (mevalonate kinase (MK) [2]; MK from S. pneumoniae, read-out: Ki (MK)): 570 nM

O=C(O)CC(O)(CCO)C(F)(F)F (stereo not drawn) [linear form of F3-mev, 6,6,6-trifluoromevalonate]
effect on viability (growth on plates) [3]: little effect

C[C@@](O)(CCOP(=O)(O)OP(=O)(O)O)CC(=O)O [DPM, Diphosphomevalonate]
effect of DPM on human MK (human mevalonate kinase [4]): virtually unaffected; also recorded: insensitive
Kd (mevalonate kinase (MK) [5]; Kd DPM, quoted for the NMR titration of MK): 500 nM
Kd (mevalonate kinase (MK) [5]; affinity of DPM for apo (E) form of the enzyme, apo (E)): 630 nM
Kd (mevalonate kinase (MK) [5]; affinity of DPM for ternary (E.AMPPNP.mev) form of the enzyme, ternary (E.AMPPNP.mev)): 530 nM
binding stoichiometry (mevalonate kinase (MK) [5]; enzyme is a dimer): 0.5 DPM/active site
Ki (mevalonate kinase (MK) [6]): 400 nM
Km [7]: 15 µM
Kd (DPM-DC [8]): 540 nM
change in the intrinsic fluorescence of DPM-DC (DPM-DC [8]; on binding of DPM): 1.5 fold
Ki (mevalonate kinase (MK) [2]): 500 nM
turnover reduced to (mevalonate kinase (MK) [2]; DPM bound to MK): less than 0.5%
inhibition mechanism (initial-rate study) (mevalonate kinase (MK) [2]; vs substrates): noncompetitively
effect of DPM on human mevalonate kinase isozyme (human mevalonate kinase [9]): not affected

O=C(O)CC(O)(CF)CCO (stereo not drawn) [mono-fluoro derivative, 6-Fluoromevalonic acid]
more effective than F3-mev in inhibiting incorporation of mevalonate into nonsaponifiable lipids [10]: 50 times
substrate for MK (in words) (MK): substrate
substrate for PMK (in words) (PMK): substrate
decrease in turnover (DPM-DC [11]; mono-fluoro substitution at C6): 2500 fold
turnover (DPM-DC [11]; substrate of DPM-DC): 0.19 min⁻¹
turnover relative to the native compound (DPM-DC [11]; vs DPM): 0.04%
better inhibitor of DPM-DC (relative to F3 analogue) (rat liver DPM-DC; rat liver extracts): 50 fold

CCC(O)(CCOP(=O)(O)OP(=O)(O)O)CC(=O)O (stereo not drawn) [compound 14]
Km ([7]; read-out: Km): 33 µM
kcat relative to DPM ([7]; that of DPM): 32%

Reference: US8710032B2, “Inhibitors of the mevalonate pathway of Streptococcus pneumoniae” (Northwestern University, priority 2006, dated 2014)
